Experimental findings from US6790971B1, “19-Nor-steroids” (Aventis Pharma S.A., priority 1989, dated 2004) are described below.

The target of assay [1] is T1, Progestogen Receptor of Rabbit's Uterus (Oryctolagus cuniculus, UniProt P06186).
T1 construct: The uteri were removed, weighed and homogenized at 0° C; from tissue; host or cells: uterine cytosol (150,000 g supernatant) of estradiol-primed immature rabbits
T1 sequence (P06186 1-930): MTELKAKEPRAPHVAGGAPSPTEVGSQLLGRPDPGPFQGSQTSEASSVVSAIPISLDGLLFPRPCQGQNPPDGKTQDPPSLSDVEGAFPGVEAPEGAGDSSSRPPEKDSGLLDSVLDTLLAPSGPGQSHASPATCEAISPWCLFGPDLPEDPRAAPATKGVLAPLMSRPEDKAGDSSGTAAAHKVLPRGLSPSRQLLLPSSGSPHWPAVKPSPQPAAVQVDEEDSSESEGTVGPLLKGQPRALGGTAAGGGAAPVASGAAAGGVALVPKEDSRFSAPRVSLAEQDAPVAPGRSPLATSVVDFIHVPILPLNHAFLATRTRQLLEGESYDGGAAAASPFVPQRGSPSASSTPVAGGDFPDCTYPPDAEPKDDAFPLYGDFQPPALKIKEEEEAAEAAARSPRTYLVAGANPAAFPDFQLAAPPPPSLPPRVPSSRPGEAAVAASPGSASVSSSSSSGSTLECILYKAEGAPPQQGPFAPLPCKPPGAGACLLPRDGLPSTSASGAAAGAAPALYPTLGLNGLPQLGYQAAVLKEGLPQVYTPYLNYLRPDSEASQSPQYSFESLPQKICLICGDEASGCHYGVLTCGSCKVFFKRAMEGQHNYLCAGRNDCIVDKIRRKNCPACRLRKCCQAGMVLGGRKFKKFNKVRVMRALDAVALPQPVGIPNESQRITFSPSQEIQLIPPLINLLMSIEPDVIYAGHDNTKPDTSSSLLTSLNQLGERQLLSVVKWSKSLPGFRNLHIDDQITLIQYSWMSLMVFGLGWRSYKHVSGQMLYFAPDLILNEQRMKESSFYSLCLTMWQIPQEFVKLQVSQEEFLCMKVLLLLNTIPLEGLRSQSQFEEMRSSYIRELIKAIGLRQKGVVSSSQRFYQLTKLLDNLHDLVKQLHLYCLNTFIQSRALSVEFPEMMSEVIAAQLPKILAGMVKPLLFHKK
The assay can be described thus: Relative affinity of the bond, progestogen receptor (tritiated product R displacement). The format is binding. The note with it: for Relative affinity of the bond (RAB), Progestogen, 2 H: incubation 2 H at 0° C.; for Relative affinity of the bond (RAB), Progestogen, 2 H / Relative affinity of the bond (RAB), Progestogen, 24 H: RAB=100(CH)/(CX); for Relative affinity of the bond (RAB), Progestogen, 24 H: incubation 24 H at 0° C. How it is done: Progestogen Receptor of Rabbit's Uterus:
Impuberal rabbits weighing about 1 kg received a cutaneous application of 25 μg of estradiol and 5 days after this treatment, the animals were killed. The uteri were removed, weighed and homogenized at 0° C. using a Potter teflon-glass in a TS buffered solution (Tris 10 mM, Saccharose 0.25 M, HCl pH 7.4) (1 g of tissue for 50 ml of TS). The homogenate was then ultracentrifuged (150,000 g×90 minutes) at 0° C. and aliquots of the supernatant were incubated at 0° C. for a time t, with a constant concentration (T) of the tritiated product R (17,21-dimethyl-19-nor-Δ^4,9-pregnadiene-3,20-dione in the presence of increasing concentrations (0-2500.10^−9 M) either of cold R or of cold progesterone, or of the cold product to be tested. The concentration (B) of bound tritiated R was subsequently measured in each incubate by the technique of adsorption on dextran charcoal.
(§1) Calculation of the Relative Affinty of the Bond
(§2) The calculation of the Relative Affinity of the Bond (RAB) was identical for all the receptors. The following 2 curves were traced; the percentage of the bound tritiated hormone [formula]
(§3) was a function of the logarithm of the concentration of the cold reference hormone and [formula]
(§4) as a function of the logarithm of the concentration of the cold product tested.
(§5) One determined the straight line of the equation [formula]
(§6) The intersections of the straight line I50 and of the curves make it possible to evaluate the concentrations of the cold reference hormone (CH) and of the tested cold product (CX) which inhibit to an extend of 50% the binding of the tritiated hormone upon the receptor. The relative affinity of the bond (RAB) of the tested product is determined by the equation

Assay [2] deals with T2, Glucocorticoid Receptor of Rat Thymus (Rattus norvegicus, UniProt P06536).
T2 construct: The thymuses were removed and homogenized at 0° C; from tissue; host or cells: thymus cytosol (105,000 g supernatant) of adrenalectomised male Sprague-Dawley rats
T2 sequence (P06536 1-795): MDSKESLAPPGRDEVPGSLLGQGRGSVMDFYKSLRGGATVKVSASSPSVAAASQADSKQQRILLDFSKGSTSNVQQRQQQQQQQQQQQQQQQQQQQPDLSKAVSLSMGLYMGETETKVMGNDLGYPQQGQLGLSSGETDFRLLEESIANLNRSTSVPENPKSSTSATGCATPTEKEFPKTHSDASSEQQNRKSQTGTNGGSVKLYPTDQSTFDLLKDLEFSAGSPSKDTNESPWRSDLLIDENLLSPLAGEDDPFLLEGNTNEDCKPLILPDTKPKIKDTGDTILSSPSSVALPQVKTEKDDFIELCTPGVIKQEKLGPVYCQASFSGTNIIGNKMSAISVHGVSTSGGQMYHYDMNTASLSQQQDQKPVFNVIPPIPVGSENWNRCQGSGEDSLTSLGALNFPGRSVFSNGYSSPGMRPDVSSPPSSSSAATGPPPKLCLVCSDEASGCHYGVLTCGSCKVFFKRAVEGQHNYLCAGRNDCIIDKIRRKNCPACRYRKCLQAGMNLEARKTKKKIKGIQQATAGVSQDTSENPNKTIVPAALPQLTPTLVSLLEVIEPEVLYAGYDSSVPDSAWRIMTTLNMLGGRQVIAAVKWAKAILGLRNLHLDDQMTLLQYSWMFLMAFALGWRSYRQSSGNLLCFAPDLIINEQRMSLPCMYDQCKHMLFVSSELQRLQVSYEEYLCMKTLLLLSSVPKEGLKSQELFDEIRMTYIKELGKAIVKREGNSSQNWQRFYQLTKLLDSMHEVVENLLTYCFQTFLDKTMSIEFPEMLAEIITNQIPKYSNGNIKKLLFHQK
Kind of assay: Relative affinity of the bond, glucocorticoid receptor (tritiated dexamethasone displacement). It is filed as binding. The note with it: RAB=100(CH)/(CX); for Relative affinity of the bond (RAB), Glucocoticoid, 4 H: incubation 4 H at 0° C.; for Relative affinity of the bond (RAB), Glucocoticoid, 24 H: incubation 24 H at 0° C. On the procedure: Glucocorticoid Receptor of Rat Thymus:
Male Sprague Dawley EOPS rats weighing 160 to 200 g were subjected to suprarenalectomy and 4 to 8 days after this intervention, the animals were killed. The thymuses were removed and homogenized at 0° C. in a 10 mM Tris, 0.25 M saccharose, 2 mM dithiothreitol, HCL pH 7.4 buffer, with the aid of a Potter polytetrafluoroethylene-glass (1 g of tissue for 10 ml of TS). The homogenate was subsequently ultracentrifuged (105,000 g×90 min) at 0° C. and aliquots of the supernatant were incubated at 0° C. for a time (t) with a constant concentration (T) of tritiated dexamethasone in the presence of increasing concentrations (0-2,500.10^−9 M) either of cold dexamethasone, or of cold product to be tested. The concentration (B) of the bound tritiated dexamethasone was measured in each incubate by the adsorption technique on dextran carbon.
as §1, §2, §3, §4, §5, §6

On to `CCCCN(C)C(=O)CCCCCCCCCCC[C@H]1C[C@]2(C)[C@@H](O)CC[C@H]2[C@@H]2CCc3cc(O)ccc3[C@@H]12` [Example 24, N-butyl-3,17β-dihydroxy-N-methyl-11β-Δ^1,3,5(10)-estratriene dodecanamide], for which, in assay [1], the “Relative affinity of the bond (RAB), Progestogen, 2 H” value (from here on “Relative affinity of the bond … 2 H”) is 0 and the “Relative affinity of the bond (RAB), Progestogen, 24 H” value (“Relative affinity … Progestogen, 24 H” below) is listed as 0. Besides, in assay [2], the “Relative affinity of the bond (RAB), Glucocoticoid, 4 H” value (shortened to “Relative affinity … Glucocoticoid, 4 H”) stood at 2 and the “Relative affinity of the bond (RAB), Glucocoticoid, 24 H” value (from here on “Relative affinity … Glucocoticoid, 24 H”) is given as 3.

With `CC#C[C@]1(O)CC[C@H]2[C@@H]3CCC4=CC(=O)CCC4=C3[C@@H](CCCCCCCCCCC(=O)NCCCC)C[C@@]21C` [Example 22, N-butyl-17β-hydroxy-3-oxo-17α-(1-propynyl)-11β-Δ^4,9-estradiene undecanamide], in assay [1], the “affinity for the pregesterone receptor” value is on record as “moderate affinity”; the “Relative affinity of the bond … 2 H” value was determined as 12; the “Relative affinity … Progestogen, 24 H” value is recorded as 21. Moreover, in assay [2], the “Relative affinity … Glucocoticoid, 4 H” value is 7 and the “Relative affinity … Glucocoticoid, 24 H” value came out at 14.

On to `CN(C)CCN(C)C(=O)CCCCCCCCCC[C@H]1C[C@]2(C)[C@@H](O)CC[C@H]2[C@@H]2CCC3=CC(=O)CCC3=C12` [Example 19, N-[2-(dimethylamino)-ethyl]-17β-hydroxy-N-methyl-3-oxo-11β-Δ^4,9-estradiene undecanamide], for which, in assay [1], the “Relative affinity of the bond … 2 H” value is 6 and the “Relative affinity … Progestogen, 24 H” value was 7. Also, in assay [2], the “Relative affinity … Glucocoticoid, 4 H” value was 6 and the “Relative affinity … Glucocoticoid, 24 H” value stood at 4.6.

Regarding “N-butyl-3,17β-dihydroxy-N-methyl-19-nor-11β-Δ^1,3,5(10)-pregnatrien-20-yn undecanamide [Example 21]”, in assay [1], the “Relative affinity of the bond … 2 H” value is recorded as 0.3 and the “Relative affinity … Progestogen, 24 H” value is on record as 1. In assay [2], the “Relative affinity … Glucocoticoid, 4 H” value was determined as 2 and the “Relative affinity … Glucocoticoid, 24 H” value is recorded as 2.6.

Consider `CCCCN(C)C(=O)CCCCCCCCCC[C@H]1C[C@]2(C)[C@@H](O)CC[C@H]2[C@@H]2CCc3cc(O)ccc3[C@@H]12` [Example 13, N-Butyl-3,17β-Dihydroxy-N-Methyl-11β-Δ^1,3,5(10)-Estratriene-Undecanamide], for which, in assay [1], the “Relative affinity of the bond … 2 H” value is 0.0 and the “Relative affinity … Progestogen, 24 H” value came out at 1.8. In addition, in assay [2], the “Relative affinity … Glucocoticoid, 4 H” value worked out at 7 and the “Relative affinity … Glucocoticoid, 24 H” value came out at 7.

Turning to `CN(Cc1ccccc1)C(=O)CCCCCCCCCC[C@H]1C[C@]2(C)[C@@H](O)CC[C@H]2[C@@H]2CCC3=CC(=O)CCC3=C12` [Example 17, N-benzyl-17β-hydroxy-N-methyl-3-oxo-11β-Δ^4,9-estradiene undecanamide], in assay [1], the “affinity for the pregesterone receptor” value is listed as “moderate affinity”; the “Relative affinity of the bond … 2 H” value worked out at 0; the “Relative affinity … Progestogen, 24 H” value stood at 16. In assay [2], the “Relative affinity … Glucocoticoid, 4 H” value worked out at 3 and the “Relative affinity … Glucocoticoid, 24 H” value is given as 6.

Consider `CC(C)N(C)C(=O)CCCCCCCCCC[C@H]1C[C@]2(C)[C@@H](O)CC[C@H]2[C@@H]2CCc3cc(O)ccc3[C@@H]12` [Example 16, 3,17β-dihydroxy-N-methyl-N-isopropyl-11β-Δ^1,3,5(10)-estratriene undecanamide], for which, in assay [1], the “Relative affinity of the bond … 2 H” value came out at 0.5 and the “Relative affinity … Progestogen, 24 H” value is recorded as 2. Besides, in assay [2], the “Relative affinity … Glucocoticoid, 4 H” value came out at 12 and the “Relative affinity … Glucocoticoid, 24 H” value is given as 11.
